Laboratory results reported in ChEMBL document CHEMBL3045169, “In vitro evaluation of the antibacterial and antifungal activity of some new pyrazolyl-quinazolin-4(3H)-one derivatives” (2012).

How the values were obtained:
Type in all cases: functional
[1] = tested on: Staphylococcus aureus; test: Antibacterial activity against Staphylococcus aureus ATCC 9144 at 100 ug/ml by agar cup-plate method; conditions: read-out: IZ
[2] = tested on: Pseudomonas aeruginosa; test: Antibacterial activity against Pseudomonas aeruginosa ATCC 9027 by agar cup-plate method relative to penicillin-G; design: concentration or dose not given beside the values
[3] = tested on: Bacillus subtilis; test: Antibacterial activity against Bacillus subtilis ATCC 6633 at 100 ug/ml by agar cup plate method; conditions: read-out: IZ
[4] = tested on: Pseudomonas aeruginosa; test: Antibacterial activity against Pseudomonas aeruginosa ATCC 9027 at 100 ug/ml by agar cup-plate method; conditions: read-out: IZ
[5] = tested on: Escherichia coli; test: Antibacterial activity against Escherichia coli ATCC 25922 at 100 ug/ml by agar cup-plate method; conditions: read-out: IZ
[6] = tested on: Candida albicans; test: Antifungal activity against Candida albicans ATCC 10231 by agar cup-plate method relative to fluconazole; design: concentration or dose not given beside the values
[7] = tested on: Aspergillus niger; test: Antifungal activity against Aspergillus niger ATCC 6275 by agar cup-plate method relative to fluconazole; design: concentration or dose not given beside the values
[8] = tested on: Pseudomonas aeruginosa; test: Antibacterial activity against Pseudomonas aeruginosa ATCC 9027 at 50 ug/ml by agar cup-plate method; conditions: read-out: IZ
[9] = tested on: Bacillus subtilis; test: Antibacterial activity against Bacillus subtilis ATCC 6633 by agar cup plate method relative to penicillin-G; design: concentration or dose not given beside the values
[10] = tested on: Staphylococcus aureus; test: Antibacterial activity against Staphylococcus aureus ATCC 9144 at 50 ug/ml by agar cup-plate method; conditions: read-out: IZ
[11] = tested on: Escherichia coli; test: Antibacterial activity against Escherichia coli ATCC 25922 at 50 ug/ml by agar cup-plate method; conditions: read-out: IZ
[12] = tested on: Bacillus subtilis; test: Antibacterial activity against Bacillus subtilis ATCC 6633 at 50 ug/ml by agar cup plate method; conditions: read-out: IZ
[13] = tested on: Staphylococcus aureus; test: Antibacterial activity against Staphylococcus aureus ATCC 9144 by agar cup-plate method relative to penicillin-G; design: concentration or dose not given beside the values
[14] = tested on: Aspergillus niger; test: Antifungal activity against Aspergillus niger ATCC 6275 at 10 ug/ml by agar cup-plate method; conditions: read-out: IZ
[15] = tested on: Candida albicans; test: Antifungal activity against Candida albicans ATCC 10231 at 20 ug/ml by agar cup-plate method; conditions: read-out: IZ
[16] = tested on: Escherichia coli; test: Antibacterial activity against Escherichia coli ATCC 25922 by agar cup-plate method relative to penicillin-G; design: concentration or dose not given beside the values
[17] = tested on: Aspergillus niger; test: Antifungal activity against Aspergillus niger ATCC 6275 at 20 ug/ml by agar cup-plate method; conditions: read-out: IZ
[18] = tested on: Candida albicans; test: Antifungal activity against Candida albicans ATCC 10231 at 10 ug/ml by agar cup-plate method; conditions: read-out: IZ

## O=c1c2cc(I)ccc2nc(Cc2ccccc2Nc2ccccc2)n1NC1=NNC(c2ccccc2Cl)C1 (stereo unspecified)
[1]
  zone of inhibition at 100 µg/mL: 6 mm
[2]
  Activity: 48.61%
[3]
  zone of inhibition at 100 µg/mL: 7 mm
[4]
  zone of inhibition at 100 µg/mL: 7 mm
[5]
  zone of inhibition at 100 µg/mL: 7 mm
[6]
  Activity: 76.62%
[7]
  Activity: 66.9%
[8]
  zone of inhibition at 50 µg/mL: 0 mm
[9]
  Activity: 45.27%
[10]
  zone of inhibition at 50 µg/mL: 0 mm
[11]
  zone of inhibition at 50 µg/mL: 0 mm
[12]
  zone of inhibition at 50 µg/mL: 0 mm
[13]
  Activity: 44.39%
[14]
  zone of inhibition at 10 µg/mL: 16 mm
[15]
  zone of inhibition at 20 µg/mL: 20 mm
[16]
  Activity: 44.45%
[17]
  zone of inhibition at 20 µg/mL: 19 mm
[18]
  zone of inhibition at 10 µg/mL: 17 mm

## CN(C)c1ccc(C2CC(Nn3c(Cc4ccccc4Nc4ccccc4)nc4ccc(I)cc4c3=O)=NN2)cc1 (stereo unspecified)
[1]
  zone of inhibition at 100 µg/mL: 7 mm
[2]
  Activity: 48.61%
[3]
  zone of inhibition at 100 µg/mL: 7 mm
[4]
  zone of inhibition at 100 µg/mL: 7 mm
[5]
  zone of inhibition at 100 µg/mL: 6 mm
[6]
  Activity: 68.81%
[7]
  Activity: 60.1%
[8]
  zone of inhibition at 50 µg/mL: 0 mm
[9]
  Activity: 45.27%
[10]
  zone of inhibition at 50 µg/mL: 0 mm
[11]
  zone of inhibition at 50 µg/mL: 0 mm
[12]
  zone of inhibition at 50 µg/mL: 0 mm
[13]
  Activity: 48.23%
[14]
  zone of inhibition at 10 µg/mL: 14 mm
[15]
  zone of inhibition at 20 µg/mL: 18 mm
[16]
  Activity: 40.81%
[17]
  zone of inhibition at 20 µg/mL: 17 mm
[18]
  zone of inhibition at 10 µg/mL: 15 mm

## CC1(C)S[C@@H]2[C@H](NC(=O)Cc3ccccc3)C(=O)N2[C@H]1C(=O)O [PENICILLIN G]
[1]
  zone of inhibition at 100 µg/mL: 30 mm
[3]
  zone of inhibition at 100 µg/mL: 27 mm
[4]
  zone of inhibition at 100 µg/mL: 28 mm
[5]
  zone of inhibition at 100 µg/mL: 31 mm
[8]
  zone of inhibition at 50 µg/mL: 23 mm
[10]
  zone of inhibition at 50 µg/mL: 25 mm
[11]
  zone of inhibition at 50 µg/mL: 25 mm
[12]
  zone of inhibition at 50 µg/mL: 21 mm

## O=c1c2cc(I)ccc2nc(Cc2ccccc2Nc2ccccc2)n1NC1=NNC(c2ccccc2[N+](=O)[O-])C1 (stereo unspecified)
[1]
  zone of inhibition at 100 µg/mL: 16 mm
[2]
  Activity: 55.43%
[3]
  zone of inhibition at 100 µg/mL: 17 mm
[4]
  zone of inhibition at 100 µg/mL: 15 mm
[5]
  zone of inhibition at 100 µg/mL: 14 mm
[6]
  Activity: 68.81%
[7]
  Activity: 58.12%
[8]
  zone of inhibition at 50 µg/mL: 12 mm
[9]
  Activity: 63.61%
[10]
  zone of inhibition at 50 µg/mL: 13 mm
[11]
  zone of inhibition at 50 µg/mL: 11 mm
[12]
  zone of inhibition at 50 µg/mL: 13 mm
[13]
  Activity: 55.29%
[14]
  zone of inhibition at 10 µg/mL: 15 mm
[15]
  zone of inhibition at 20 µg/mL: 18 mm
[16]
  Activity: 47.67%
[17]
  zone of inhibition at 20 µg/mL: 17 mm
[18]
  zone of inhibition at 10 µg/mL: 15 mm

## O=c1c2cc(I)ccc2nc(Cc2ccccc2Nc2ccccc2)n1NC1=NNC(c2cccc(Cl)c2)C1 (stereo unspecified)
[1]
  zone of inhibition at 100 µg/mL: 6 mm
[2]
  Activity: 44.72%
[3]
  zone of inhibition at 100 µg/mL: 6 mm
[4]
  zone of inhibition at 100 µg/mL: 6 mm
[5]
  zone of inhibition at 100 µg/mL: 6 mm
[6]
  Activity: 59.53%
[7]
  Activity: 53.99%
[8]
  zone of inhibition at 50 µg/mL: 0 mm
[9]
  Activity: 41.49%
[10]
  zone of inhibition at 50 µg/mL: 0 mm
[11]
  zone of inhibition at 50 µg/mL: 0 mm
[12]
  zone of inhibition at 50 µg/mL: 0 mm
[13]
  Activity: 44.39%
[14]
  zone of inhibition at 10 µg/mL: 12 mm
[15]
  zone of inhibition at 20 µg/mL: 16 mm
[16]
  Activity: 40.81%
[17]
  zone of inhibition at 20 µg/mL: 15 mm
[18]
  zone of inhibition at 10 µg/mL: 14 mm

## O=c1c2cc(I)ccc2nc(Cc2ccccc2Nc2ccccc2)n1NC1=NNC(c2cccc([N+](=O)[O-])c2)C1 (stereo unspecified)
[1]
  zone of inhibition at 100 µg/mL: 15 mm
[2]
  Activity: 67.47%
[3]
  zone of inhibition at 100 µg/mL: 14 mm
[4]
  zone of inhibition at 100 µg/mL: 19 mm
[5]
  zone of inhibition at 100 µg/mL: 19 mm
[6]
  Activity: 56.01%
[7]
  Activity: 51.18%
[8]
  zone of inhibition at 50 µg/mL: 16 mm
[9]
  Activity: 52.61%
[10]
  zone of inhibition at 50 µg/mL: 12 mm
[11]
  zone of inhibition at 50 µg/mL: 15 mm
[12]
  zone of inhibition at 50 µg/mL: 11 mm
[13]
  Activity: 52.83%
[14]
  zone of inhibition at 10 µg/mL: 11 mm
[15]
  zone of inhibition at 20 µg/mL: 15 mm
[16]
  Activity: 62.3%
[17]
  zone of inhibition at 20 µg/mL: 14 mm
[18]
  zone of inhibition at 10 µg/mL: 13 mm

## O=c1c2cc(I)ccc2nc(Cc2ccccc2Nc2ccccc2)n1NC1=NNC(c2ccc(Cl)cc2)C1 (stereo unspecified)
[1]
  zone of inhibition at 100 µg/mL: 6 mm
[2]
  Activity: 48.61%
[3]
  zone of inhibition at 100 µg/mL: 6 mm
[4]
  zone of inhibition at 100 µg/mL: 7 mm
[5]
  zone of inhibition at 100 µg/mL: 6 mm
[6]
  Activity: 67.26%
[7]
  Activity: 58.12%
[8]
  zone of inhibition at 50 µg/mL: 0 mm
[9]
  Activity: 41.49%
[10]
  zone of inhibition at 50 µg/mL: 0 mm
[11]
  zone of inhibition at 50 µg/mL: 0 mm
[12]
  zone of inhibition at 50 µg/mL: 0 mm
[13]
  Activity: 44.39%
[14]
  zone of inhibition at 10 µg/mL: 15 mm
[15]
  zone of inhibition at 20 µg/mL: 18 mm
[16]
  Activity: 40.81%
[17]
  zone of inhibition at 20 µg/mL: 17 mm
[18]
  zone of inhibition at 10 µg/mL: 16 mm
